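96-well plates; 48 h exposure; 5 concentrations. Endpoints by linear interpolation between flanking doses. Not reached: highest tested concentration assigned. TGI denotes the concentration required for complete inhibition of growth.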
Experiments:
Assay in all cases: growth of human tumour cells (NCI), 48 h
NCI-H460 lung = tested on: NCI-H460 lung
UO-31 renal = tested on: UO-31 renal
U251 CNS = tested on: U251 CNS
HOP-92 NSCLC = tested on: HOP-92 NSCLC
SW-620 colon = tested on: SW-620 colon
SNB-19 CNS = tested on: SNB-19 CNS
SNB-75 CNS = tested on: SNB-75 CNS
MOLT-4 leukemia = tested on: MOLT-4 leukemia
HCT-116 colon = tested on: HCT-116 colon
SN12C renal = tested on: SN12C renal
M14 melanoma = tested on: M14 melanoma
OVCAR-3 ovarian = tested on: OVCAR-3 ovarian
SR leukemia = tested on: SR leukemia
NCI/ADR-RES ovarian = tested on: NCI/ADR-RES ovarian
BT-549 breast = tested on: BT-549 breast
DU-145 prostate = tested on: DU-145 prostate
MDA-MB-435 = tested on: MDA-MB-435
HS 578T breast = tested on: HS 578T breast

SMILES	TGI (NCI-H460 lung) [µM]	TGI (UO-31 renal) [µM]	TGI (U251 CNS) [µM]	TGI (HOP-92 NSCLC) [µM]	TGI (SW-620 colon) [µM]	TGI (SNB-19 CNS) [µM]	TGI (SNB-75 CNS) [µM]	TGI (MOLT-4 leukemia) [µM]	TGI (HCT-116 colon) [µM]	TGI (SN12C renal) [µM]	TGI (M14 melanoma) [µM]	TGI (OVCAR-3 ovarian) [µM]	TGI (SR leukemia) [µM]	TGI (NCI/ADR-RES ovarian) [µM]	TGI (BT-549 breast) [µM]	TGI (DU-145 prostate) [µM]	TGI (MDA-MB-435) [µM]	TGI (HS 578T breast) [µM]
CC(=O)NC(CCCN)C(=O)NCc1ccccc1 (stereo not given)	> 100	> 100	> 100	> 100	> 100	> 100	> 100	> 100	> 100	> 100	> 100	> 100						
COc1ccc2c(c1)OCc1c-2oc2ccccc2c1=O		> 100	> 100	> 100			92.4	> 100	> 100	> 100	> 100	> 100	> 100	> 100	> 100	> 100	> 100	
CC1=CC(=O)NCCN1C	> 100	> 100	> 100	> 100	> 100	> 100	> 100	> 100	> 100	> 100	> 100	> 100	> 100					
COc1ccc(-c2c(C(C)=O)c(-c3ccccc3)n(C3OC(COC(C)=O)C(OC(C)=O)C(OC(C)=O)C3OC(C)=O)c(=S)c2C#N)cc1 (stereo not given)	> 100		> 100	71.7	> 100	> 100	> 100	> 100	> 100	> 100	> 100	> 100	> 100	> 100		> 100	> 100	
O=C(CC(=O)N1N=C(c2ccccc2)C(N=Nc2ccc(Cl)cc2)C1=O)Nc1ccccc1Cl (stereo not given)	> 100	78	71.1		> 100	61	41.3	> 100	> 100	> 100	> 100	71.4	> 100					
N#CCCN(c1ccc(/C=C2\N=C(c3ccc(Cl)cc3)OC2=O)cc1)S(=O)(=O)c1ccccc1	> 100	> 100	> 100		> 100	> 100	> 100	> 100	> 100	> 100	> 100	> 100	> 100					
CCOC(=O)[C@H]1Nc2ccc(C)cc2C2c3ccccc3CC21 (stereo not given in full)	> 100	> 100	> 100		> 100	> 100	> 100	> 100	> 100	> 100	> 100	> 100	> 100					
CCCCCCCCCCCCCCCCCc1cccc(OCOCCOC)c1CO	> 100	> 100	> 100	> 100	> 100	> 100	> 100	> 100	> 100		> 100	> 100	> 100	> 100	> 100		> 100	> 100
CCOC(=O)c1c(SC(=O)/C=C/c2ccccc2)n(-c2ccccc2)c(=S)n(-c2ccccc2)c1=O	> 100		> 100	> 100	> 100	> 100	> 100	> 100	> 100	> 100	> 100	> 100	> 100	> 100		> 100	> 100	> 100
CC1=CC(=O)NP(=O)(Oc2ccc(C)cc2)N1 (stereo not given)	> 100	> 100	> 100	> 100	> 100	> 100	> 100	> 100	> 100	> 100	> 100	> 100	> 100					
O=P(c1ccccc1)(c1ccccc1)C(NCc1ccccc1)c1ccc(F)cc1 (stereo not given)	26.7	25.3	30	26.6	35.5	33.5	48.3	37.5	25.7	36.6	27.8	27.6	49.5	41.2		45.2	23	98.2
COc1cccc(C2c3cc4c(cc3OC(N3CCCC3)C2C)OCO4)c1 (stereo not given)		41.4		12.6	> 100	61.4	81		18.3	> 100	21.1	28.6	21.4	33.5		58.6	11.6	34.6
CC(=O)NCc1nc(C#N)c(N)o1	> 100	> 100	> 100	> 100	> 100	> 100	> 100	> 100	> 100	> 100	> 100	> 100		> 100		> 100	> 100	> 100
N#CC1=C(N2CCCC2)NC(=O)CC1=O	> 100	> 100	> 100	> 100	> 100	> 100		> 100	> 100	> 100	> 100	> 100	> 100	> 100		> 100	> 100	> 100
COc1cc(C2c3cc4c(cc3[C@@H](Nc3ccccc3)C3CO[C@@H](OC)[C@H]23)OCO4)cc(OC)c1O (stereo not given in full)	> 25	8.03	> 25		> 25	> 25	> 25	6.34	> 25	> 25	> 25		22.6	> 25			> 25	17.3
O=C1c2ccccc2S[C@@H](O)[C@@H]2CCCN12	> 100	> 100	> 100	> 100	> 100	> 100		> 100	> 100	> 100	> 100	> 100	> 100					
CCOC(=O)CC(NC(=O)c1nc[nH]c1[N+](=O)[O-])C(=O)OCC (stereo not given)	> 100	> 100	36.9		> 100	> 100	> 100	> 100	> 100	> 100	> 100	> 100	> 100					

SMILES	TGI (NCI-H460 lung) [µM]	TGI (UO-31 renal) [µM]	TGI (U251 CNS) [µM]	TGI (HOP-92 NSCLC) [µM]	TGI (SW-620 colon) [µM]	TGI (SNB-19 CNS) [µM]	TGI (SNB-75 CNS) [µM]	TGI (MOLT-4 leukemia) [µM]	TGI (HCT-116 colon) [µM]	TGI (SN12C renal) [µM]	TGI (M14 melanoma) [µM]	TGI (OVCAR-3 ovarian) [µM]	TGI (SR leukemia) [µM]	TGI (NCI/ADR-RES ovarian) [µM]	TGI (BT-549 breast) [µM]	TGI (DU-145 prostate) [µM]	TGI (MDA-MB-435) [µM]	TGI (HS 578T breast) [µM]
O=C1NNC(=O)C2C3c4ccccc4C(c4ccccc43)C12 (stereo not given)	> 100	> 100	> 100		> 100	> 100	> 100	> 100	> 100	> 100	> 100	> 100	> 100	> 100	> 100	> 100		> 100
CC1CN=C(Nc2ccc(S(N)(=O)=O)cc2)S1 (stereo not given)	> 100	> 100	> 100	> 100	> 100	> 100	> 100	> 100	> 100	> 100	> 100	> 100	> 100	> 100		> 100		> 100
COC(=O)c1ccc2c(c1)CC1(C2)Cc2cc3c(cc2C1=O)CCC3 (stereo not given)	> 100	> 100	> 100	> 100	> 100	> 100	83.6	29.2	> 100	> 100	42.2	87.8		51.3		> 100	57.4	> 100
O=C(CC(=O)n1nc(-c2ccccc2)c(N=Nc2ccc(Cl)cc2)c1-c1ccccc1)Nc1cccc(Cl)c1	> 100	> 100	> 100	> 100	> 100	> 100	> 100	> 100	> 100	> 100	> 100		> 100		> 100			> 100
CN(C)/N=C(\CCN1CCCC1)CC(c1ccccc1)c1c(O)c2ccccc2oc1=O (stereo not given)				> 100	> 100	> 100	> 100		> 100	> 100	> 100	> 100						
CC(=O)OC1CC2OC(Cc3ccccc32)O1 (stereo not given)	> 100	> 100	> 100	> 100	> 100	> 100	> 100	> 100	> 100	> 100	> 100	> 100	> 100					
CCN(CC)C(=O)C/C(C)=N/NC(=O)c1ccncc1	> 100	> 100	> 100	> 100	> 100		> 100	> 100	> 100		> 100	> 100						
COC(=O)C(=O)C(C(=O)C=C(C)C)C(=O)C(=O)Nc1ccc(Cl)cc1C (stereo not given)	> 100	> 100	> 100	> 100		> 100	> 100	> 100	> 100	> 100	> 100	> 100	45.2					
CCN(CC)Cc1cc(Nc2ccnc3ccc4c(nnn4C)c23)ccc1O	14.2	23.6				21.3	19.9	> 100	18.2	31.8	28.7	39.9	18.6	52.7	37.1	31.4		42.1
COC(=O)C(=O)C(C(=O)C(=O)Nc1ccc(C)cc1C)c1nc2ccccc2[nH]c1=O (stereo not given)	> 100	> 100	> 100		> 100	> 100	69.2	> 100	> 100	> 100	> 100	> 100	> 100					
O=[N+]([O-])C(C(Cl)=C(Cl)Cl)=C(N1CCOCC1)N1CCOCC1		> 100	> 100			> 100	> 100	> 100	> 100	> 100	> 100	> 100				> 100	> 100	> 100
Cc1[nH]c(=O)[nH]c(=S)c1C(=O)NC(C)(CO)CO	> 100	> 100	> 100	> 100	> 100	> 100	> 100	> 100	> 100	> 100	> 100	> 100		> 100		> 100	> 100	> 100
CN1CCC(OC(=O)Oc2ccccc2)(c2ccccc2)CC1	39.3	54.2	44.9		59.6	69.2	63.3	36.4	30.5	43.8	28.2	> 100	42.6	39.2		> 100	33.7	54.3
CCOC(=O)C(Cl)(NC(=O)c1ccc(F)cc1)C(F)(F)F (stereo not given)	> 100	> 100	> 100	> 100	> 100	> 100	> 100	> 100	> 100	> 100	> 100	> 100	> 100	> 100		> 100	> 100	> 100
CCOC(=O)Cn1sc2ncc([N+](=O)[O-])cc2c1=O	34.4	21.8		26.9	30.6		89.1	9.45	31.1	31.6		33.4		35.5		> 100	30	> 100
O=C1SCC(O)=C1/C=N/Nc1nc2ccccc2o1	> 100			81.7	> 100	> 100		> 100	50	96	57.5	65.5	> 100	43.3		> 100	> 100	> 100

Reference: PubChem BioAssay (NCI)
